Experimental data reported in patent US20210045385A1, “PYRIDAZINONE-SUBSTITUTED KETOXIMES AS HERBICIDES” (FMC Corporation, priority 2018, published 2021).

What was measured:
Assay type in all cases: in vivo
[1] = system: pigweed (Amaranthus retroflexus); assay: Test A preemergence, visual plant response rating; conditions: for Pigweed plant response rating: preemergence, 0 to 100 scale, 0 no effect, 100 complete control; for Pigweed plant response rating (0 to 100 scale): approx. 10 days
Method in brief: (§1)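 Formulated in a non-phytotoxic solvent mixture including surfactant, each test chemical was sprayed onto the soil surface after sowing, or onto seedlings 2 to 10 cm high. Roughly 10 days later, plants were compared with untreated controls and rated for injury from 0 (no effect) to 100 (complete control).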

[2] = system: Italian ryegrass (Lolium multiflorum); assay: Test A preemergence, visual plant response rating; conditions: for Ryegrass, Italian plant response rating: preemergence, 0 to 100 scale, 0 no effect, 100 complete control; for Ryegrass, Italian plant response rating (0 to 100 scale): approx. 10 days
Method in brief: as §1

[3] = system: barnyardgrass (Echinochloa crus-galli); assay: Test A preemergence, visual plant response rating; conditions: for Barnyardgrass plant response rating: preemergence, 0 to 100 scale, 0 no effect, 100 complete control; for Barnyardgrass plant response rating (0 to 100 scale): approx. 10 days
Method in brief: as §1

[4] = system: ragweed (common ragweed, Ambrosia elatior); assay: Test A preemergence, visual plant response rating; conditions: for Ragweed plant response rating: preemergence, 0 to 100 scale, 0 no effect, 100 complete control; for Ragweed plant response rating (0 to 100 scale): approx. 10 days
Method in brief: as §1

[5] = system: foxtail, giant (giant foxtail, Setaria faberii); assay: Test A preemergence, visual plant response rating; conditions: for Foxtail, Giant plant response rating: preemergence, 0 to 100 scale, 0 no effect, 100 complete control; for Foxtail, Giant plant response rating (0 to 100 scale): approx. 10 days
Method in brief: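 Greenhouse pot test in loam–sand soil mix: compound in a surfactant-containing non-phytotoxic solvent applied preemergence (directed soil spray) or postemergence (one- to two-leaf plants, 2–10 cm). Injury scored visually after ~10 days, 0–100.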

kochia (Kochia scoparia) [6] = assay: Test A preemergence, visual plant response rating; conditions: for Kochia plant response rating: preemergence, 0 to 100 scale, 0 no effect, 100 complete control; for Kochia plant response rating (0 to 100 scale): approx. 10 days
Method in brief: as §1

[7] = system: pigweed (Amaranthus retroflexus); assay: Test A postemergence, visual plant response rating; conditions: for Pigweed plant response rating: Postemergence, 125 g ai/ha, 0 to 100 scale (0 no effect, 100 complete control)
Text: (§2) Seeds of plant species selected from barnyardgrass (Echinochloa crus-galli), kochia (Kochia scoparia), ragweed (common ragweed, Ambrosia elatior), Italian ryegrass (Lolium multiflorum), foxtail, giant (giant foxtail, Setaria faberii), foxtail, green (green foxtail, Setaria viridis), and pigweed (Amaranthus retroflexus) were planted into a blend of loam soil and sand and treated preemergence with a directed soil spray using test chemicals formulated in a non-phytotoxic solvent mixture which included a surfactant.
(§3) At the same time, plants selected from these weed species and also wheat (Triticum aestivum), corn (Zea mays), blackgrass (Alopecurus myosuroides), and galium (catchweed bedstraw, Galium aparine) were planted in pots containing the same blend of loam soil and sand and treated with postemergence applications of test chemicals formulated in the same manner. Plants ranged in height from 2 to 10 cm and were in the one- to two-leaf stage for the postemergence treatment. Treated plants and untreated controls were maintained in a greenhouse for approximately 10 days, after which time all treated plants were compared to untreated controls and visually evaluated for injury. Plant response ratings, summarized in Table A, are based on a 0 to 100 scale where 0 is no effect and 100 is complete control. A dash (-) response means no test result.

[8] = system: Italian ryegrass (Lolium multiflorum); assay: Test A postemergence, visual plant response rating; conditions: for Ryegrass, Italian plant response rating: Postemergence, 125 g ai/ha, 0 to 100 scale (0 no effect, 100 complete control)
Text: as §2, §3

[9] = system: galium (catchweed bedstraw, Galium aparine); assay: Test A postemergence, visual plant response rating; conditions: for Galium plant response rating: Postemergence, 125 g ai/ha, 0 to 100 scale (0 no effect, 100 complete control)
Text: as §2, §3

[10] = system: blackgrass (Alopecurus myosuroides); assay: Test A postemergence, visual plant response rating; conditions: for Blackgrass plant response rating: Postemergence, 125 g ai/ha, 0 to 100 scale (0 no effect, 100 complete control)
Text: as §2, §3

[11] = system: barnyardgrass (Echinochloa crus-galli); assay: Test A postemergence, visual plant response rating; conditions: for Barnyardgrass plant response rating: Postemergence, 125 g ai/ha, 0 to 100 scale (0 no effect, 100 complete control)
Text: as §2, §3

[12] = system: ragweed (common ragweed, Ambrosia elatior); assay: Test A postemergence, visual plant response rating; conditions: for Ragweed plant response rating: Postemergence, 125 g ai/ha, 0 to 100 scale (0 no effect, 100 complete control)
Text: as §2, §3

[13] = system: foxtail, giant (giant foxtail, Setaria faberii); assay: Test A postemergence, visual plant response rating; conditions: for Foxtail, Giant plant response rating: Postemergence, 125 g ai/ha, 0 to 100 scale (0 no effect, 100 complete control)
Text: as §2, §3

corn (Zea mays) = assay: Test A postemergence, visual plant response rating; conditions: for Corn plant response rating: Postemergence, 125 g ai/ha, 0 to 100 scale (0 no effect, 100 complete control)
Text: as §2, §3

[14] = system: wheat (Triticum aestivum); assay: Test A postemergence, visual plant response rating; conditions: for Wheat plant response rating: Postemergence, 125 g ai/ha, 0 to 100 scale (0 no effect, 100 complete control)
Text: as §2, §3

kochia (Kochia scoparia) [15] = assay: Test A postemergence, visual plant response rating; conditions: for Kochia plant response rating: Postemergence, 125 g ai/ha, 0 to 100 scale (0 no effect, 100 complete control)
Text: as §2, §3

[16] = system: ducksalad (Heteranhera limosa); assay: Test B flooded paddy test, visual plant response rating; conditions: 250 g ai/ha, Flood, applied to paddy water, 2-leaf stage, evaluated after 13 to 15 days
Protocol: (§4) Plant species in the flooded paddy test selected from rice (Oryza sativa), sedge, umbrella (small-flower umbrella sedge, Cyperus difformis), ducksalad (Heteranhera limosa), and barnyardgrass (Echinochloa crus-galli) were grown to the 2-leaf stage for testing. At time of treatment, test pots were flooded to 3 cm above the soil surface treated by application of test compounds directly to the paddy water, and then maintained at that water depth for the duration of the test. Treated plants and controls were maintained in a greenhouse for 13 to 15 days, after which time all species were compared to controls and visually evaluated. […] A dash (-) response means no test result.

[17] = system: barnyardgrass (Echinochloa crus-galli); assay: as above; conditions: 250 g ai/ha, Flood, applied to paddy water, 2-leaf stage, evaluated after 13 to 15 days
Protocol: as §4

[18] = system: sedge, umbrella (small-flower umbrella sedge, Cyperus difformis); assay: as above; conditions: 250 g ai/ha, Flood, applied to paddy water, 2-leaf stage, evaluated after 13 to 15 days
Protocol: as §4

rice (Oryza sativa) = assay: as above; conditions: 250 g ai/ha, Flood, applied to paddy water, 2-leaf stage, evaluated after 13 to 15 days
Protocol: as §4

[19] = 1000 g ai/ha Postemergence, approx. 10 days
[20] = 500 g ai/ha, postemergence, 0 is no effect, 100 is complete control

SMILES	Plant response rating, Ducksalad (0 to 100 scale, 0 is no effect, 100 is complete control) [16]	Plant response rating, Barnyardgrass (0 to 100 scale, 0 is no effect, 100 is complete control) [17]	Plant response rating, Sedge, Umbrella (0 to 100 scale, 0 is no effect, 100 is complete control) [18]	Plant response rating, Rice (0 to 100 scale, 0 is no effect, 100 is complete control) (rice (Oryza sativa))	Pigweed plant response rating (0 to 100 scale) ([1]; 500 g ai/ha Preemergence)	Ryegrass, Italian plant response rating (0 to 100 scale) ([2]; 500 g ai/ha Preemergence)	Barnyardgrass plant response rating (0 to 100 scale) ([3]; 500 g ai/ha Preemergence)	Ragweed plant response rating (0 to 100 scale) ([4]; 500 g ai/ha Preemergence)	Foxtail, Giant plant response rating (0 to 100 scale) ([5]; 500 g ai/ha Preemergence)	Kochia plant response rating (0 to 100 scale) (kochia (Kochia scoparia) [6]; 500 g ai/ha Preemergence)	Pigweed plant response rating (0 to 100 scale) [7, 20]	Pigweed plant response rating [7]	Ryegrass, Italian plant response rating (0 to 100 scale) [8, 20]	Ryegrass, Italian plant response rating [8]	Galium plant response rating (0 to 100 scale) [9, 20]	Galium plant response rating [9]	Blackgrass plant response rating (0 to 100 scale) [10, 20]	Blackgrass plant response rating [10]	Barnyardgrass plant response rating (0 to 100 scale) [11, 20]	Barnyardgrass plant response rating [11]	other results
CCON=C(c1cccc(C)c1)c1c(O)c(C)nn(C)c1=O (mixture of isomers) [Compound 6]	0	0	0	0																	Pigweed plant response rating ([1]; 1000 g ai/ha): 70; Ryegrass, Italian plant response rating ([2]; 1000 g ai/ha): 80; Barnyardgrass plant response rating ([3]; 1000 g ai/ha): 30; Ragweed plant response rating ([4]; 1000 g ai/ha): 50; Foxtail, Giant plant response rating ([5]; 1000 g ai/ha): 30; Kochia plant response rating (kochia (Kochia scoparia) [6]; 1000 g ai/ha): 20; Pigweed plant response rating (0 to 100 scale) [7, 19]: 80; Ryegrass, Italian plant response rating (0 to 100 scale) [8, 19]: 70; Galium plant response rating (0 to 100 scale) [9, 19]: 90; Blackgrass plant response rating (0 to 100 scale) [10, 19]: 10; Barnyardgrass plant response rating (0 to 100 scale) [11, 19]: 30; Ragweed plant response rating (0 to 100 scale) [12, 19]: 90; Foxtail, Giant plant response rating (0 to 100 scale) [13, 19]: 50; Corn plant response rating (0 to 100 scale) (corn (Zea mays); [19]): 0; Wheat plant response rating (0 to 100 scale) [14, 19]: 0; Kochia plant response rating (0 to 100 scale) (kochia (Kochia scoparia) [15]; [19]): 80
CON=C(c1cccc(Cl)c1)c1c(O)c(C)nn(C2CC2)c1=O (mixture of isomers) [Compound 33]	0	0	0	0	70	60	0	20	0	10	30	10	60	10	70	40	0	0	0	0	Pigweed plant response rating (0 to 100 scale) ([1]; 125 g ai/ha Preemergence): 0; Ryegrass, Italian plant response rating (0 to 100 scale) ([2]; 125 g ai/ha Preemergence): 20; Barnyardgrass plant response rating (0 to 100 scale) ([3]; 125 g ai/ha Preemergence): 0; Ragweed plant response rating (0 to 100 scale) ([4]; 125 g ai/ha Preemergence): 0; Foxtail, Giant plant response rating (0 to 100 scale) ([5]; 125 g ai/ha Preemergence): 0; Kochia plant response rating (0 to 100 scale) (kochia (Kochia scoparia) [6]; 125 g ai/ha Preemergence): 0; Ragweed plant response rating (0 to 100 scale) [12, 20]: 60; Ragweed plant response rating [12]: 10; Foxtail, Giant plant response rating (0 to 100 scale) [13, 20]: 10; Foxtail, Giant plant response rating [13]: 0; Corn plant response rating (0 to 100 scale) (corn (Zea mays); [20]): 0; Corn plant response rating (corn (Zea mays)): 0; Wheat plant response rating (0 to 100 scale) [14, 20]: 20; Wheat plant response rating [14]: 0; Kochia plant response rating (0 to 100 scale) (kochia (Kochia scoparia) [15]; [20]): 40; Kochia plant response rating (kochia (Kochia scoparia) [15]): 20
C#CCON=C(c1c(O)c(C)nn(C)c1=O)c1cccc2ccccc12 (mixture of isomers) [Compound 118]	55	0	35	0	100	100	100	100	100	60	100	100	100	90	100	90	100	90	90	90	Pigweed plant response rating ([1]; 125 g ai/ha): 100; Ryegrass, Italian plant response rating ([2]; 125 g ai/ha): 100; Barnyardgrass plant response rating ([3]; 125 g ai/ha): 60; Ragweed plant response rating ([4]; 125 g ai/ha): 80; Foxtail, Giant plant response rating ([5]; 125 g ai/ha): 80; Kochia plant response rating (kochia (Kochia scoparia) [6]; 125 g ai/ha): 40; Ragweed plant response rating (0 to 100 scale) [12, 20]: 90; Ragweed plant response rating [12]: 90; Foxtail, Giant plant response rating (0 to 100 scale) [13, 20]: 90; Foxtail, Giant plant response rating [13]: 80; Corn plant response rating (0 to 100 scale) (corn (Zea mays); [20]): 70; Corn plant response rating (corn (Zea mays)): 30; Wheat plant response rating (0 to 100 scale) [14, 20]: 90; Wheat plant response rating [14]: 40; Kochia plant response rating (0 to 100 scale) (kochia (Kochia scoparia) [15]; [20]): 100; Kochia plant response rating (kochia (Kochia scoparia) [15]): 70
CON=C(c1cc(C)cs1)c1c(O)c(C)nn(C)c1=O (mixture of isomers) [Compound 133]	0	0	0	0	0	0	0	40	0	20	80	50	0	0	60	20	0	0	0	0	Pigweed plant response rating ([1]; 125 g ai/ha): 0; Ryegrass, Italian plant response rating ([2]; 125 g ai/ha): 0; Barnyardgrass plant response rating ([3]; 125 g ai/ha): 0; Ragweed plant response rating ([4]; 125 g ai/ha): 0; Foxtail, Giant plant response rating ([5]; 125 g ai/ha): 0; Kochia plant response rating (kochia (Kochia scoparia) [6]; 125 g ai/ha): 0; Ragweed plant response rating (0 to 100 scale) [12, 20]: 30; Ragweed plant response rating [12]: 10; Foxtail, Giant plant response rating (0 to 100 scale) [13, 20]: 10; Foxtail, Giant plant response rating [13]: 0; Corn plant response rating (0 to 100 scale) (corn (Zea mays); [20]): 0; Corn plant response rating (corn (Zea mays)): 0; Wheat plant response rating (0 to 100 scale) [14, 20]: 0; Wheat plant response rating [14]: 0; Kochia plant response rating (0 to 100 scale) (kochia (Kochia scoparia) [15]; [20]): 60; Kochia plant response rating (kochia (Kochia scoparia) [15]): 20
